The results in this text go back to patent US20230278995A1, “1,3,4-OXADIAZOLE DERIVATIVE COMPOUNDS AS HISTONE DEACETYLASE 6 INHIBITOR, AND THE PHARMACEUTICAL COMPOSITION COMPRISING THE SAME” (CHONG KUN DANG PHARMACEUTICAL CORP., priority 2020, published 2023).

Molecules are shown by their SMILES.

For experiment [1], the target named is T1, human recombinant HDAC1 (Homo sapiens, UniProt Q13547).
T1 construct: purchased Enzo Life Sciences, Inc. BML-SE456
In words: HDAC enzyme activity inhibition assay (HDAC Fluorimetric Drug Discovery Kit), HDAC1. It counts as biochemical. The following applies: human recombinant HDAC1, Fluor de Lys-SIRT1 substrate, 30° C. 60 minutes. In outline:
(§1)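 The preceding reaction ran 60 min at 30 °C with 0.3 μg recombinant human enzyme, HDAC1 or HDAC6 under an identical protocol, and 10 μM Fluor de Lys-SIRT1 substrate, across 5-fold diluted compound.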

In experiment [2] the target is T2, human recombinant HDAC6 (Homo sapiens, UniProt Q9UBN7).
T2 construct: purchased Calbiochem Inc. 382180
T2 sequence (Q9UBN7 1-1215): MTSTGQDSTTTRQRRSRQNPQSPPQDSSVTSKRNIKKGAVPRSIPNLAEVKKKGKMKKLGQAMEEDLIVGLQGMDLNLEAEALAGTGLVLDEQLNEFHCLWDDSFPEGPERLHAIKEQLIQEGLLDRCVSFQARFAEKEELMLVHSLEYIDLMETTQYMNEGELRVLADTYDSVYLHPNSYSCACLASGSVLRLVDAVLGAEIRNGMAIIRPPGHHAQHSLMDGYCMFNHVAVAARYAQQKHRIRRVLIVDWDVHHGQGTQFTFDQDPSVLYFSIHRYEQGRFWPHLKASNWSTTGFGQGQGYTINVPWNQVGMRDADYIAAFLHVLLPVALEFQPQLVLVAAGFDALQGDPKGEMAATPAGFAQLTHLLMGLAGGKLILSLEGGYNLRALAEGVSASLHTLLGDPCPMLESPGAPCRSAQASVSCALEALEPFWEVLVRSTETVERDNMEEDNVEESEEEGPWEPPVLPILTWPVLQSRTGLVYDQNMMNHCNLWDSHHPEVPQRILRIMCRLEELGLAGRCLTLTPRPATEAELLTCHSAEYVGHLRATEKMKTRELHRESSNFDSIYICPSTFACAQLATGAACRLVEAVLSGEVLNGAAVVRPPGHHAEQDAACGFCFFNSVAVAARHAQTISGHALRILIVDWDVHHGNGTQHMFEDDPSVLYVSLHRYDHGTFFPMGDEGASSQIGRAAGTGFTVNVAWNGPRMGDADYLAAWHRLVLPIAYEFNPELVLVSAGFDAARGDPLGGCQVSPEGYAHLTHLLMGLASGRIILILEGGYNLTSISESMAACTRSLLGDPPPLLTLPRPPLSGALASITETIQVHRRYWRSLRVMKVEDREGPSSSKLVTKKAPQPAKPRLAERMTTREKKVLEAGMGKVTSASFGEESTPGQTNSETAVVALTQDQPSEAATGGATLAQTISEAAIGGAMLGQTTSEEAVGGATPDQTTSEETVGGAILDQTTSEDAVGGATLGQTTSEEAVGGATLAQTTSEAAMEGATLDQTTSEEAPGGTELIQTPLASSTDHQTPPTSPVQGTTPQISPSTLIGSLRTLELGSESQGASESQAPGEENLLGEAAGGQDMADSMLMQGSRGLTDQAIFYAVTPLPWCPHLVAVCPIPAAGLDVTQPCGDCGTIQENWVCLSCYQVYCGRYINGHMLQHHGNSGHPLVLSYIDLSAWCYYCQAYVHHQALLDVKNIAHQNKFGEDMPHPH
The experiment can be described thus: HDAC enzyme activity inhibition assay (HDAC Fluorimetric Drug Discovery Kit), HDAC6. It counts as biochemical. The following applies: for HDAC6 selectivity (fold): HDAC1 vs HDAC6; for IC50: human recombinant HDAC6, same protocol as HDAC1. In outline:
as §1

T1 sequence (Q13547 whole entry): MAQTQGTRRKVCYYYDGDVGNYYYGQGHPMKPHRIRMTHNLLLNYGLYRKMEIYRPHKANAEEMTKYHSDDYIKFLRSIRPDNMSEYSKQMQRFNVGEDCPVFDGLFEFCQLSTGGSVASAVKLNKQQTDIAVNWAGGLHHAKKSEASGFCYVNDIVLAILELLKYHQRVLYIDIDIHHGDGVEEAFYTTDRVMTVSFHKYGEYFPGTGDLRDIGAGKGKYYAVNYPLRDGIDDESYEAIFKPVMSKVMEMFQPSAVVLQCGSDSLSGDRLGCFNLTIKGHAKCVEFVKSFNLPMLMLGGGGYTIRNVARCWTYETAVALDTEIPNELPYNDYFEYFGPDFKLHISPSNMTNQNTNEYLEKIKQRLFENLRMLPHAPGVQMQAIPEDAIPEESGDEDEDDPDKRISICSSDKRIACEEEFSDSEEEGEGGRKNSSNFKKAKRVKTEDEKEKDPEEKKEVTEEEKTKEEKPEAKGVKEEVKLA

As to `CC(C)CN1CCC(N2CC(F)(C(=O)N(Cc3ccc(-c4nnc(C(F)F)o4)cn3)c3cccc(F)c3)C2)CC1` [Compound 3403, N-((5-(5-(difluoromethyl)-1,3,4-oxadiazol-2-yl)pyridin-2-yl)methyl)-3-fluoro-N-(3-fluorophenyl)-1-(1-isobutylpiperidine-4-yl)azetidine-3-carboxamide], the concentration for half-maximal inhibition (IC50) in experiment [1] stood at 26300 nM. Also, in experiment [2], the “HDAC6 selectivity (fold)” value worked out at 911 fold and the 50% inhibitory concentration (IC50) amounted to 28.8 nM.
Taken in the same sequence, the figures for `CC(C)N1CCC(N2CC(F)(C(=O)N(Cc3ccc(-c4nnc(C(F)F)o4)cn3)c3cccc(F)c3)C2)CC1` [Compound 3404, N-((5-(5-(difluoromethyl)-1,3,4-oxadiazol-2-yl)pyridin-2-yl)methyl)-3-fluoro-N-(3-fluorophenyl)-1-(1-isopropylpiperidin-4-yl)azetidine-3-carboxamide] were 25400 nM, 773 fold and 32.9 nM.
On to `O=C(N(Cc1ccc(-c2nnc(C(F)F)o2)cn1)c1cccc(F)c1)C1(F)CN(C2CCN(C3CCC3)CC2)C1` [Compound 3405, 1-(1-cyclobutylpiperidin-4-yl)-N-((5-(5-(difluoromethyl)-1,3,4-oxadiazol-2-yl)pyridin-2-yl)methyl)-3-fluoro-N-(3-fluorophenyl)azetidine-3-carboxamide], for which the IC50 in experiment [1] was found to be 20400 nM. In addition, in experiment [2], the “HDAC6 selectivity (fold)” value was found to be 771 fold and the IC50 came out at 26.5 nM.
In the same order, the values of `O=C(N(Cc1ccc(-c2nnc(C(F)F)o2)cn1)c1cccc(F)c1)C1(F)CN(C2CCN(C3COC3)CC2)C1` [Compound 3406, N-((5-(5-(difluoromethyl)-1,3,4-oxadiazol-2-yl)pyridin-2-yl)methyl)-3-fluoro-N-(3-fluorophenyl)-1-(1-(oxetan-3-yl)piperidin-4-yl)azetidine-3-carboxamide] are 26600 nM, 734 fold and 36.2 nM.
For the compound `O=C(N(Cc1ccc(-c2nnc(C(F)F)o2)cn1)c1cccc(F)c1)C1(F)CN(C2CCN(C3CCCC3)CC2)C1` [Compound 3407, 1-(1-cyclopentylpiperidin-4-yl)-N-((5-(5-(difluoromethyl)-1,3,4-oxadiazol-2-yl)pyridin-2-yl)methyl)-3-fluoro-N-(3-fluorophenyl)azetidine-3-carboxamide], in experiment [1], the IC50 was 48000 nM. Moreover, in experiment [2], the “HDAC6 selectivity (fold)” value was 2,581 fold and the IC50 came to 18.6 nM.
In the same order, the values of `O=C(N(Cc1ccc(-c2nnc(C(F)F)o2)cn1)c1cccc(F)c1)C1(F)CN(C2CCN(C3CCOC3)CC2)C1` (stereo not drawn) [Compound 3408, N-((5-(5-(difluoromethyl)-1,3,4-oxadiazol-2-yl)pyridin-2-yl)methyl)-3-fluoro-N-(3-fluorophenyl)-1-(1-(tetrahydrofuran-3-yl)piperidin-4-yl)azetidine-3-carboxamide] are 37000 nM, 1,135 fold and 32.6 nM.
In the same order, the values of `O=C(N(Cc1ccc(-c2nnc(C(F)F)o2)cn1)c1cccc(F)c1)C1(F)CN(C2CCN(C3CCCCC3)CC2)C1` [Compound 3409, 1-(1-cyclohexylpiperidin-4-yl)-N-((5-(5-(difluoromethyl)-1,3,4-oxadiazol-2-yl)pyridin-2-yl)methyl)-3-fluoro-N-(3-fluorophenyl)azetidine-3-carboxamide] are more than 50000 nM, 1,497 fold and 33.4 nM.
Regarding `O=C(N(Cc1ccc(-c2nnc(C(F)F)o2)cn1)c1cccc(F)c1)C1(F)CN(C2CCN(C3CCOCC3)CC2)C1` [Compound 3410, N-((5-(5-(difluoromethyl)-1,3,4-oxadiazol-2-yl)pyridin-2-yl)methyl)-3-fluoro-N-(3-fluorophenyl)-1-(1-(tetrahydro-2H-pyran-4-yl)piperidin-4-yl)azetidine-3-carboxamide], the half-maximal inhibitory concentration (IC50) in experiment [1] was found to be 34700 nM. Besides, in experiment [2], the “HDAC6 selectivity (fold)” value is reported as 1,343 fold and the IC50 was found to be 25.8 nM.
In the same order, the values of `CN1CC(F)(C(=O)N(Cc2ccc(-c3nnc(C(F)F)o3)cc2F)c2ccccc2)C1` [Compound 3429, N-(4-(5-(difluoromethyl)-1,3,4-oxadiazol-2-yl)-2-fluorobenzyl)-3-fluoro-1-methyl-N-phenylazetidine-3-carboxamide] are 30900 nM, 421 fold and 73.4 nM.
Taken in the same sequence, the figures for `CCN1CC(F)(C(=O)N(Cc2ccc(-c3nnc(C(F)F)o3)cc2F)c2ccccc2)C1` [Compound 3430, N-(4-(5-(difluoromethyl)-1,3,4-oxadiazol-2-yl)-2-fluorobenzyl)-1-ethyl-3-fluoro-N-phenylazetidine-3-carboxamide] were more than 50000 nM, 624 fold and 80.1 nM.
With `CC(C)N1CC(F)(C(=O)N(Cc2ccc(-c3nnc(C(F)F)o3)cc2F)c2ccccc2)C1` [Compound 3431, N-(4-(5-(difluoromethyl)-1,3,4-oxadiazol-2-yl)-2-fluorobenzyl)-3-fluoro-1-isopropyl-N-phenylazetidine-3-carboxamide], the IC50 in experiment [1] is more than 50000 nM. For the same compound, in experiment [2], the “HDAC6 selectivity (fold)” value amounted to 544 fold and the IC50 was found to be 91.8 nM.
Taken in the same sequence, the figures for `CC(=O)N1CC(F)(C(=O)N(Cc2ccc(-c3nnc(C(F)F)o3)cc2F)c2ccccc2)C1` [Compound 3432, 1-acetyl-N-(4-(5-(difluoromethyl)-1,3,4-oxadiazol-2-yl)-2-fluorobenzyl)-3-fluoro-N-phenylazetidine-3-carboxamide] were 29100 nM, 366 fold and 79.5 nM.
Regarding `CCC(=O)N1CC(F)(C(=O)N(Cc2ccc(-c3nnc(C(F)F)o3)cc2F)c2ccccc2)C1` [Compound 3433, N-(4-(5-(difluoromethyl)-1,3,4-oxadiazol-2-yl)-2-fluorobenzyl)-3-fluoro-N-phenyl-1-propionylazetidine-3-carboxamide], the IC50 in experiment [1] turned out to be 38500 nM. In experiment [2], the “HDAC6 selectivity (fold)” value is reported as 448 fold and the half-maximal inhibitory concentration (IC50) is 85.9 nM.
In the same order, the values of `CC(C)C(=O)N1CC(F)(C(=O)N(Cc2ccc(-c3nnc(C(F)F)o3)cc2F)c2ccccc2)C1` [Compound 3434, N-(4-(5-(difluoromethyl)-1,3,4-oxadiazol-2-yl)-2-fluorobenzyl)-3-fluoro-1-isobutyryl N-phenylazetidine-3-carboxamide] are more than 50000 nM, 441 fold and 113 nM.
In the same order, the values of `O=C(N1CC(F)(C(=O)N(Cc2ccc(-c3nnc(C(F)F)o3)cc2F)c2ccccc2)C1)C(F)(F)F` [Compound 3435, N-(4-(5-(difluoromethyl)-1,3,4-oxadiazol-2-yl)-2-fluorobenzyl)-3-fluoro-N-phenyl-1-(2,2,2-trifluoroacetyl)azetidine-3-carboxamide] are more than 50000 nM, 325 fold and 154 nM.
`CS(=O)(=O)N1CC(F)(C(=O)N(Cc2ccc(-c3nnc(C(F)F)o3)cc2F)c2ccccc2)C1` [Compound 3436, N-(4-(5-(difluoromethyl)-1,3,4-oxadiazol-2-yl)-2-fluorobenzyl)-3-fluoro-1-(methylsulfonyl)-N-phenylazetidine-3-carboxamide]: in experiment [1], the IC50 is more than 50000 nM. Moreover, in experiment [2], the “HDAC6 selectivity (fold)” value came out at 378 fold and the IC50 was determined as 132 nM.
For `CC(C)N1CCC(F)(C(=O)N(Cc2ccc(-c3nnc(C(F)F)o3)cc2F)c2ccccc2)CC1` [Compound 3437, N-(4-(5-(difluoromethyl)-1,3,4-oxadiazol-2-yl)-2-fluorobenzyl)-4-fluoro-1-isopropyl-N-phenylpiperidine-4-carboxamide], the half-maximal inhibitory concentration (IC50) in experiment [1] was more than 50000 nM. In experiment [2], the “HDAC6 selectivity (fold)” value was 226 fold and the IC50 was 221 nM.

Usually IC50 stands for the concentration that gives 50% inhibition.
